Measurements from US6365734B1, “Cucurbituril derivatives, their preparation methods and uses” (Pohang University of Science and Technology Foundation, priority 1999, dated 2002).

Tests used:
[1] = Complex formation with anti-cancer drug, drug carrier test (NMR); assay type: binding; settings: in water
Description: The following example is for investigating the function of the cucurbituril derivatives obtained in Synthesis Examples 1 through 10, as a drug carrier. In the following example, cisplatin, an anti-cancer drug, was used.
2.0 mg of Cis-dichloroethylenediamine platinum (II) and 2.0 mg of cucurbit[8]uril were dissolved in water.

[2] = Ternary complex formation, amino acid sensing (NMR); assay type: binding; settings: methylviologen, tryptophan and host, D2O, heated
Description: 5.0 mM of methylviologendichloride solution, and 5.0 mM of tryptophan solution were prepared using D2O solvent. 0.25 ml of each solution was mixed with 2.1 mg of cucurbit[8]uril. Next, the mixture was heated until the color changed into red.

[3] = as above; assay type: binding; settings: methylviologen, tyrosine and host, D2O, heated
Description: 5.0 mM of methylviologendichloride solution, and 5.0 mM of tyrosine solution were prepared using D2O solvent. 0.25 ml of each solution was mixed with 2.1 mg of cucurbit[8]uril. Next, the mixture was heated until the color changed into yellow.

[4] = Host-guest complex formation in water (NMR); assay type: binding; settings: guest 2,6-Bis(4,5-dihydro-1H-imidazol-2-yl)naphthalene dihydrochloride
Description: 5.80 mg of 2,6-Bis(4,5-dihydro-1H-imidazol-2-yl)naphthalene dihydrochloride and 5.0 mg of cucurbit[8]uril were dissolved in water.
4.35 mg of 2,6-Bis(4,5-dihydro-1H-imidazol-2-yl)naphthalene dihydrochloride and 5.0 mg of cucurbit[7]uril were dissolved in water.

[5] = Complex formation with herbicide (NMR); assay type: binding; settings: methylviologen and host, D2O
Description: Methylviologendichloride (so-called paraquat), a herbicide, was used. 5.0 mM of mehylbiologendichloride solution was prepared with D2O solvent. Next, cucurbit[8]uril was added to the solution.

[6] = Inclusion complex formation in water; assay type: binding; settings: guest cyclam, heating then slow cooling
Description: 13.0 mg of cyclam tetrahydrochloride (1,4,8,11-tetraazacyclotetradecane tetrahydrochloride) and 10.0 mg of cucurbit[8]uril were dissolved in water.

[7] = Ternary complex formation, nucleic acid base sensing (NMR); assay type: binding; settings: methylviologen, thymine and host, D2O, heated
Description: 5.0 mM of methylviologendichloride solution, and 5.0 mM of thymine solution were prepared using D2O solvent. 0.25 ml of each solution was mixed with 2.1 mg of cucurbit[8]uril. Next, the mixture was heated until the color changed into yellow.

[8] = Inclusion complex formation in water; assay type: binding; settings: guest cyclen, heating then slow cooling
Description: 120.0 mg of cyclen tetrahydrochloride ([…] tetrahydrochloride) and 100.0 mg of cucurbit[8]uril were dissolved in water.

[9] = Binding constant by microcalorimeter (VP-ITC); settings: water/formic acid 1:1 by volume, 1.0 mM host
Description: Distilled water and formic acid were mixed in a ratio of 1:1: by volume. Next, 1.0 mM of cucurbit[5]uril derivative was prepared with the diluted formic acid. 20.0 mM of aqueous solution containing ammonium ions, and positive ions of alkaline metals, such as lithium, sodium and potassium, was prepared. Then, the binding constants of the cucurbit[5]uril derivative with these ions were measured using a microcalorimeter (VP-ITC, manufactured by MicroCal). As a result, the cucurbit[5]uril derivative has a binding constant of 5.4×10^3M^−1 with ammonium ions, 3.3×10^2M^−1 with positive lithium ions, 4.5×10^3M^−1 with positive sodium ions, and 2.6×10^4M^−1 with positive potassium ions. The cucurbit[5]uril derivative can selectively bind with alkali metal ions, as well as with ammonium ions. The result confirms that cucurbituril derivatives can be used as ion sensors.

[10] = Inclusion complex formation in water; assay type: binding; settings: guest 1-aminoadamantane, addition of methanol
Description: 24.2 mg of 1-aminoadanmatane hydrochloride and 50.0 mg of cucurbi[7]uril were dissolved in water.

[11] = Organic dye removal from water, UV absorption of filtrate
Description: 30 mg of organic dye, Direct Red 5B (commercially available from Ciba-Geigy Co.) was dissolved in 150 ml of water to prepare an organic dye solution. To half the organic dye solution, 150 mg of cucurbit[7]uril was added and stirred for 30 minutes.
The precipitate was filtered, and UV absorption spectra were measured at λmax=510 nm on the filtrate and the remaining half of the organic dye solution which was not treated with the cucurbut[7]uril.
R=UV absorption intensity of the dye solution treated with cucurbit[7]uril ×100/UV absorption intensity of the dye solution before the treatment with cucurbit[7]uril.
The following dyes were used: Reactive Blue HE-G (produced by Kyung-In Co.), Direct Solophenyl Violet 4BL (produced by Ciba-Geigy Co.), Reactive Navy Blue HE-R 150 (produced by Kyung-In Co.), Disperse Yellow E-3 (produced by LG Co.), Disperse T/Q Blue S-GL (produced by LG Co.) and Orange TGL (produced by Ciba-Geigy Co.).

For `O=C1N2CN3C(=O)N4CN5C(=O)N6CN7C(=O)N8CN9C(=O)N%10CN%11C(=O)N%12CN%13C(=O)N%14CN%15C(=O)N%16CN1C1C2N2CN%17C(=O)N(CN%18C(=O)N(CN%19C(=O)N(CN%20C(=O)N(CN%21C(=O)N(CN%22C(=O)N(CN%23C(=O)N(CN1C2=O)C%16C%15%23)C%14C%13%22)C%12C%11%21)C%10C9%20)C8C7%19)C6C5%18)C4C3%17` (stereo not shown) [cucurbit[8]uril], the “complex formation and stoichiometry (platinum compound : host)” value [1] was “quantitative formation of a 2:1 complex”, the “complex formation and stoichiometry” value [2] was “quantitative formation of a 1:1:1 complex” and the “complex formation and stoichiometry” value [3] was “quantitative formation of a 1:1:1 complex”. For the same molecule, the “host-guest complex formation and stoichiometry” value [4] was “quantitative formation of a 1:2 host-guest complex”, the “complex formation and stoichiometry” value [5] was “quantitative formation of a 1:1 complex” and the inclusion complex formation [6] was “produced an inclusion complex”. For the same molecule, the “complex formation and stoichiometry” value [7] was “quantitative formation of a 1:1:1 complex” and the inclusion complex formation [8] was “produced an inclusion complex”.

For `O=C1N2CN3C(=O)N4CN5C(=O)N6CN7C(=O)N8CN9C(=O)N%10CN1C1C2N2CN%11C(=O)N(CN%12C(=O)N(CN%13C(=O)N(CN%14C(=O)N(CN1C2=O)C%10C9%14)C8C7%13)C6C5%12)C4C3%11` (stereo not shown) [cucurbit[5]uril], the “binding constant with ammonium ions” value [9] was 5400 M⁻¹, the “binding constant with positive lithium ions” value [9] was 330 M⁻¹ and the “binding constant with positive potassium ions” value [9] was 26000 M⁻¹. For the same molecule, the “binding constant with positive sodium ions” value [9] was 4500 M⁻¹.

For cucurbit[7]uril, the inclusion complex formation [10] was “produced an inclusion complex”, the “host-guest complex formation and stoichiometry” value [4] was “quantitative formation of a 1:1 host-guest complex” and the R ([11]; Direct Red 5B, 510 nm, R = intensity after treatment ×100 / intensity before) was 1.7%. For the same molecule, the R ([11]; Direct Solophenyl Violet 4BL, 546 nm, R = intensity after ×100 / before) was 1.3%, the R ([11]; Disperse T/Q Blue S-GL 200, 776 nm, R = intensity after ×100 / before) was 0.8% and the R ([11]; Disperse Yellow E-3, 429 nm, R = intensity after ×100 / before) was 3.0%. It also gave an R ([11]; Orange TGL, 419 nm, R = intensity after ×100 / before) of 5.4%, an R ([11]; Reactive Blue HE-G, 626 nm, R = intensity after ×100 / before) of 0.3% and an R ([11]; Reactive Blue HE-G, 662 nm, R = intensity after ×100 / before) of 0.3%. For the same molecule, the R ([11]; Reactive Navy Blue HE-R 150, 609 nm, R = intensity after ×100 / before) was 0.6%.
